How the values were obtained:
NCI-H1650 M3 cells = experiment: Sensitivity to erlotinib, MTT assay, erlotinib-resistant cells; assay type: cell-based, human
Method: Viability was measured by MTT assay relative to untreated cells, with each data point showing the average of four replicates.

phospho-STAT3 [1] = experiment: Western blot for phospho-STAT3, NCI-H1650 M3 cells; assay type: cell-based, human
Method: (§1) Adherent cells were washed with 1×PBS and whole cell lysate was extracted and western blot analysis was performed as previously described (Sordella et al. Science 305, 1163-1167; 2004). Antibodies against phosphor-EGFR (Tyr1068), total Akt, phospho-Akt (Ser473), total ERK 1/2, phospho-ERK 1/2 (Thr202/tyr204), phospho-STAT3 (Tyr705), cleaved PARP and phospho-MET (Tyr1234/Tyr1235) were purchased from Cell Signaling Technology (Danvers, Mass.). Total cMET and total EGFR antibodies were purchased from Santa Cruz Biotechnology (Santa Cruz, Calif.). The antibody against total STAT3 was purchased from BD Biosciences (San Jose, Calif.).
To determine whether IL-6 was the autocrine factor responsible for promoting STAT3 phosphorylation in the erlotinib-resistant cells, the expression of IL-6 was inhibited using siRNA technology. Briefly, NCI-H 1650 M3 cells were transfected with siRNA targeting IL-6 (siRNA I and II) or a non-specific siRNA (siRNA III) using Lipofectamine 2000 at a final concentration of 30 nM siRNA. After 6 days cell extracts were analyzed by immunoblotting for phospho-STAT3, STAT3 and tubulin. […] Thus, an increased secretion of IL-6 was responsible for the observed STAT3 phosphorylation. […] Cell extracts were analyzed by immunoblot for phospho-STAT3 and total STAT3. […]

NCI-H1650 cells [2] = experiment: Mouse xenograft model, tumor burden; assay type: in vivo, Nu/Nu mice; conditions: topical TPA 5 days, then erlotinib by oral gavage versus DMSO
Method: The in vivo mouse experiments were performed by inoculating subcutaneously 3×10^6 NCI-H1650 cells subcutaneously into each flank of immunodeficient Nu/Nu mice in Swiss CD 1 background (Charles River Breeding Laboratories, Wilmington, Mass.). After the tumors reached a volume of approximately 100 mm^3, mice were treated topically every 2 days with TPA (10 μL of 0.25 mg/mL solution in acetone) or with acetone for 5 days. […] Tumor volume was monitored with a digital caliper and calculated using the following formula: (length)×(width)^2/2.
IL-6 is a pleiotropic cytokine that exerts important biological functions in a wide variety of systems and processes (e.g., inflammation, acute-phase reaction, nervous and endocrine systems, bone metabolism, hematopoiesis). […] Cutaneous inflammation and secretion of IL-6 by topic treatment of the mouse epidermis with low dose of 12-O-tetradecanoyl-phorbol-13-acetate (TPA) every other day was induced in a Nu/nu mouse model (Vasunia et al. Carcinogenesis 1994, 15: 653). Acetone was used as a vehicle control. The Nu/nu mice were subsequently injected in the flank with NSCLC expressing mutant EGFR.
After 8 days, tumor burden was evaluated and the averages of four separate tumors were charted.

IL-6 [3] = experiment: IL-6 immunostaining of tumor sections; assay type: in vivo, Nu/Nu mice; conditions: TPA-treated versus acetone-treated mice, topical
Method: Formalin-fixed, paraffin-embedded sections (4 μm) were stained for IL-6. Sections were de-embedded and rehydrated and epitope retrieval was performed by heating the sections in 0.01M citrate buffer at pH 6.0 in a microwave oven for 10 minutes. Endogenous peroxidase activity was blocked by treatment with 3% hydrogen peroxide in PBS for 10 minutes. After washing with PBS the blocking was performed using the Avidin/Biotin blocking kit (Vector laboratories, Cambridge, UK), Super Block (ID laboratories, London, CDN) and Mouse Block (ID laboratories, London, CDN). The sections were incubated with the primary antibody IL-6 (ab6672; Abcam, Cambridge, UK) in 1:300 dilution at 4° C. overnight. The IHC detection was done with the IDetect Super Stain System HRP (ID laboratories, London, CDN). […]
Protein expression was measured by defining regions of interest (ROI) using automated cell acquisition and quantification software for Immunohistochemistry (Histoquest™) and immunofluorescence (Tissuequest™).
Immunostaining of tumor sections using an anti-IL-6 antibody confirmed that TPA was able to augment IL-6 expression in the tumors. […] The levels of IL-6 in tumor matters were further measured by defining regions of interest (ROI) using automated cell acquisition and quantification software for immunohistochemistry (Histoquest™) or quantification software for immunofluorescence (Tissuequest™). […]

NCI-H1650 = experiment: Sensitivity to erlotinib, MTT assay; assay type: cell-based; conditions: Homo sapiens, read-out: IC50 to either gefitinib or erlotinib treatment; NCI-H1650, EGFR delE746-A750; 'typically displays'
phospho-STAT3 [4] = experiment: Western blot for phospho-STAT3, parental cells; assay type: cell-based, human
Method: as §1
(§2) Cell extracts were analyzed by immunoblotting with antibodies specific to Tubulin, AKT, P-AKT, STAT3, and P-STAT3.

P-EGFR = experiment: Western blot for P-EGFR, parental and resistant cells; assay type: cell-based, human; conditions: parental versus NCI-H1650 M3, erlotinib 0.01-10 μM, 3 hours
Description: as §1, with “Antibodies” for “Adherent cells were washed with 1×PBS and whole cell lysate was extracted and western blot analysis was performed as previously described (Sordella et al. Science 305, 1163-1167; 2004). Antibodies”

P-AKT = experiment: Western blot for P-AKT; assay type: cell-based, human
Method: as §1, with “Antibodies” for “Adherent cells were washed with 1×PBS and whole cell lysate was extracted and western blot analysis was performed as previously described (Sordella et al. Science 305, 1163-1167; 2004). Antibodies”
as §2

cleaved PARP = experiment: Immunoblot for cleaved PARP (apoptosis); assay type: cell-based, human
Method: as §1
Cells not treated with the drug were used as a control. Cell extracts obtained after 72 hours were analyzed by immunoblotting for cleaved PARP (CL-PARP), an indicator of apoptosis status.

IL-6 [5] = experiment: IL-6 ELISA of cell media; assay type: cell-based, human; conditions: NCI-H1650 M3, in the presence of erlotinib 10 μM
Method: Cells were grown to approximately 80% confluency. Cells were washed with 1×PBS and fresh media was added. After 24 hours the supernatant was collected and analyzed for IL-6 using an ELISA kit (Diaclone, Canton, Mass.) following the manufacturers instruction.
The mRNA levels of various secreted proteins, including HGF, EGF, LIF, CNTF, IL-1A, IL-11, OSM and IL-6 (which are known to increase STAT3 phosphorylation), were examined by RT-PCR, the results normalized against beta-actin mRNA levels. No substantial levels of HGF were detected in either the parental-sensitive cells or in the resistant cells. Among these protein factors, a substantial increase in IL-6 mRNA levels was found in the resistant cells as compared to parental cells. This increase in IL-6 mRNA expression correlated with augmented levels of the protein secretion as determined by enzyme-linked immunosorbent assay (ELISA). See FIG. 2, Panel A; levels of IL-6 were measured by ELISA with each point representing the average of four data points.

PC9 cells = experiment: Sensitivity to erlotinib with IL-6, MTT assay; assay type: cell-based, human; conditions: PC9, 10 ng/ml IL-6 24 hours, then erlotinib at various concentrations 72 hours
NCI-H1650 cells [6] = experiment: Soft agar assay; assay type: cell-based, human; conditions: NCI-H1650, erlotinib with or without IL-6 (10 ng/ML)
Method: Cells were plated in triplicate in 12-well plates at 5000 cells/well, mixed in RPMI-1640, 5% FBS and 0.35% agarose. Cells were cultured for 20 days in presence of the indicated treatment. Colonies were visualized by staining with tetrazolium salt (Schaeffer W. I., Friend K. (1976) Cancer Lett 1:259-262). The number of colonies were determined using the J-Image software (htpp://rsbweb.hih.gov/ij/) on Z-stack images (Z=1.5 mm) at 5× magnification. Each data point represents the average of 3 fields from 3 individual wells.
The numbers of cell colonies were countered after a suitable period of time. The number of colonies were determined using the J-image software on Z-stack images (Z=1.5.mm) at 5× magnification. […] See FIG. 3, Panel C (each point represents the average of 3 fields from individual wells). […] See FIG. 3, Panel D (each bar representing the average of 4 replicates).

[7] = tested on: NSCLC cell lines expressing mutant EGFR; experiment: Cell proliferation upon stimulation with IL-6; assay type: cell-based, human; conditions: stimulation with IL-6 (10 ng/ml)
[8] = cells grown with or without IL-6, then erlotinib 4 hours, cell line not stated

Molecule: CC(C)(C)c1nc2c3ccc(F)cc3c3c(=O)[nH]ccc3c2[nH]1 [P6, 2-tert-butyl-9-fluoro-3,6-dihydro-7H-benz[h]-imidaz[4,5-f] isoquinoline-7-one]
- cell viability upon erlotinib treatment (NCI-H1650 M3 cells; NCI-H1650 M3, P6 2 μM): significantly decreased
- STAT3 phosphorylation levels (phospho-STAT3 [1]; NCI-H1650 M3, 2 μM, 2 days): decreased

Molecule: CCCCCCCCCCCCCC(=O)O[C@@H]1[C@@H](C)[C@@]2(O)[C@@H](C=C(CO)C[C@]3(O)C(=O)C(C)=C[C@@H]23)[C@@H]2C(C)(C)[C@]12OC(C)=O [TPA, 12-O-tetradecanoyl-phorbol-13-acetate]
- tumor response to erlotinib treatment (tumor burden) (NCI-H1650 cells [2]): dramatically reduced
- IL-6 mean intensity in tumors (IL-6 [3]): much higher

Molecule: C#Cc1cccc(Nc2ncnc3cc(OCCOC)c(OCCOC)cc23)c1 [erlotinib, N-(3-ethynylphenyl)-6,7-bis(2-methoxyethoxy)quinazolin-4-amine]
- IC50 (NCI-H1650): ~5 µM
- erlotinib concentration in the presence of which the isolated cell line is capable of growing (NCI-H1650 M3 cells; NCI-H1650 M3, selected in constant high erlotinib): up to 30 μM
- cell viability of NCI-H1650 M3 cells versus parental cells (NCI-H1650 M3 cells; erlotinib 0.3125-10 μM, 72 hours, particularly at high concentrations): much higher than that of the parental cells
- phosphorylated STAT3 (phospho-STAT3 [4]; parental NCI-H1650 cells, high erlotinib concentrations, 3 hours): undetectable
- STAT3 phosphorylation levels (phospho-STAT3 [1]; NCI-H1650 M3, erlotinib up to 10 μM, 3 hours): maintained high STAT3 phosphorylation levels
- EGFR phosphorylation levels upon erlotinib treatment (P-EGFR): comparable inhibition
- levels of phosphorylation of AKT (P-AKT; parental versus NCI-H1650 M3, erlotinib treatment): similarly inhibited
- cleavage of PARP upon erlotinib treatment (cleaved PARP; NCI-H1650 M3 compared to parental cells, erlotinib 10 μM, 24 hours): substantial decrease
- level of CL-PARP in erlotinib-treated cells compared to control cells (cleaved PARP; resistant cells, extracts after 72 hours): significantly increased
- IL-6 levels in the media (ELISA) (IL-6 [5]): did not change

Molecule: IL-6: Recombinant Interleukin-6 (rhIL6) from R&D systems
- effect on erlotinib-mediated inhibition of STAT3 phosphorylation (phospho-STAT3 [4]; [8]): impaired inhibition of STAT3 phosphorylation
- effect on erlotinib-mediated inhibition of AKT activation (P-AKT; [8]): did not have any effect
- CL-PARP levels in the drug treated cells (cleaved PARP; resistant cells grown with IL-6 24 hours, then erlotinib, 72 hours): decreased CL-PARP levels
- cell resistance to erlotinib (viability by MTT) (PC9 cells): increased PC9 cell resistance to erlotinib
- cell resistance to erlotinib (number of colonies in soft agar) (NCI-H1650 cells [6]): significantly increased cell resistance to erlotinib
- cell proliferation [7]: No substantial changes

From patent US7947653B1, “Methods for treating epidermal growth factor receptor tyrosine kinase inhibitor-resistant cancers” (Cold Spring Harbor Laboratory, priority 2009, dated 2011)
